Source: article PMC6397271 (Scientific Reports, 2019)
Values after ≈ are worked out from the molar mass of the structure shown. Like-named read-outs stand apart in the source and are kept apart here.

Tests used:
[1] = BBB penetration, fluorescence microscopy of brain slices; type: in vivo, BALB/c male mice; settings: iv tail vein 60 mg/kg, 2 hours, coronal cryo-sections, excitation 490 nm, emission 521 nm, n = 5
Method: In vivo experiments were performed on BALB/c male mice weighing between 20 and 30 g (the mouse model is widely used for estimation of drug BBB penetration). The animals (obtained from TAZD-CBU) were kept in a 12-hour day and night cycle at room temperature (20–22 °C), humidity 55–56% and fed with a standard diet and water ad libitum for at least 1 week before the experiment. Body temperature and weight were recorded on a regular daily schedule. It is confirmed that all procedures were carried out according to the guidelines outlined by the European Community Council Directive 2010/63/EEC, and they were approved by the local Ethical Committee Resolution 26/2014 (Bydgoszcz, Poland).
Fl-[Lys^7(PEG4-Van)]TP10 was administered to the mouse (n = 5) tail vein at a dose of 60 mg/kg in a volume of 100 μl of saline.
After 2 hours, the mice were sacrificed (by isoflurane overdose) and their brains were immediately removed from the cranium and cooled to 4 °C. Five, […] coronal cryo-sections of the brain were made starting from the frontal pole and moving to the occipital pole (HM 450 Sliding Microtome). The presence of the compound in question in the brain slices was visualized using a fluorescence microscope (Delta Optical IB-100, Delta Optical, Poland) at a fluorescence excitation and emission of 490 nm and 521 nm, respectively. […]

S. aureus MRSA 12673 = assay: microbe, parasite or virus in culture; type: cell-based, Staphylococcus aureus; settings: for MIC: raw MIC
Summary of the method: (§1)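 Strains were cultured aerobically at 37 °C for 24 h, MRSA in cation-adjusted Mueller-Hinton broth and enterococci in BHI broth. Cultures were serially diluted and plated to set CFU/ml. MICs then came from broth microdilution, scored by resazurin reduction.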

S. aureus MRSA N315 = assay: microbe, parasite or virus in culture; type: cell-based, Staphylococcus aureus
Summary of the method: as §1

[2] = system: S. aureus MRSA hetero-VISA 6347; assay: microbe, parasite or virus in culture; type: cell-based, Staphylococcus aureus
Summary of the method: as §1

[3] = system: Enterococcus faecalis 3937158; assay: microbe, parasite or virus in culture; type: cell-based
Summary of the method: as §1

[4] = system: Enterococcus faecium 3934825; assay: microbe, parasite or virus in culture; type: cell-based
Summary of the method: as §1

sheep erythrocytes = assay: Erythrocyte lysis assay; type: cell-based; settings: 37 °C, 1 hour, A450 nm; for cell lysis (haemolysis): 10^8 cells/ml, vs 4% Triton X-100, triplicates
Method: The protocol of the lysis assay is presented below.
To obtain sheep erythrocytes, 5 ml of fresh blood was centrifuged at 1000 × g for 10 min and washed 3 times with 0.9% NaCl. Cell suspension (final concentration of 10^8 cells/ml) in a volume of 75 µl was added to each well of the 96-well microtiter plate and incubated at 37 °C in the presence of the tested compounds. The range of their concentrations was 100–0.049 µM (diluted in saline solution), which included that of MIC values for the tested strains of the bacteria.
Plates with samples were incubated at 37 °C for 1 hour and then centrifuged at 1000 × g for 10 min to separate the unlysed erythrocytes. Next, the supernatant was transferred to a new plate. The absorbance (A) was measured spectrophotometrically at 450 nm of wavelength. The experiments were performed in triplicates.
The haemolysis percentage was calculated according to the equation presented by Sharma et al.[43]. The percentage of haemolysis = [(A450nm of test compound treated sample-A450nm of buffer treated sample)/(A450nm of 4%TritonX-100 treated samples-A450nm of buffer treated sample)] × 100.

[5] = system: bacterial strain not named; assay: Raw data of the MIC measurement (absorbance); type: cell-based; settings: concentration marked (MIC) in raw absorbance data
Method: The strains were grown in Mueller-Hinton broth (MH cation-adjusted, Becton Dickinson) or Brain Heart Infusion broth (BHI, Becton Dickinson), respectively. The cultivation was carried out in an aerobic atmosphere at 37 °C for 24 hours and, afterwards, the bacterial cultures were diluted in geometric progression with a proper broth. Next, 100 µl of each dilution was inoculated in an agar plate and incubated at 37 °C for 24 h. The next procedures included determination of Colony Forming Units (CFU)/ml and minimal inhibitory concentration (MIC) of the compounds in question. The latter procedure was carried out according to the microbroth dilution technique using 96-well plates. The MICs were evaluated by using the metabolic assay based on the resazurin dye. The assay was performed in triplicates.

[6] = same test as μM value, mean ± SD
[7] = microbroth dilution, 96-well, resazurin, 37 °C, 24 h, mean ± SD, at least three independent experiments in triplicates
[8] = raw MIC, first block, test a, repetition 1, read-out: MIC1a
[9] = raw MIC, first block, test a, repetition 2, read-out: MIC2a
[10] = raw MIC, first block, test a, repetition 3, read-out: MIC3a
[11] = raw MIC, first block, test b, repetition 1, read-out: MIC1b
[12] = raw MIC, first block, test b, repetition 2, read-out: MIC2b
[13] = raw MIC, first block, test b, repetition 3, read-out: MIC3b
[14] = raw MIC, test a, repetition 1, read-out: MIC1a
[15] = raw MIC, test a, repetition 2, read-out: MIC2a
[16] = raw MIC, test a, repetition 3, read-out: MIC3a
[17] = raw MIC, test b, repetition 1, read-out: MIC1b
[18] = raw MIC, test b, repetition 2, read-out: MIC2b
[19] = raw MIC, test b, repetition 3, read-out: MIC3b

Fl-[Lys^7(PEG4-Van)]TP10 [conjugate IVa]
presence in mouse brain slices (fluorescence) [1]: presence of the conjugate coupled with fluorescein in the brain

CC[C@H](C)[C@H](NC(=O)[C@H](CCCCN)NC(=O)[C@H](CCCCN)NC(=O)[C@H](C)NC(=O)[C@H](CC(C)C)NC(=O)[C@H](C)NC(=O)[C@H](C)NC(=O)[C@H](CC(C)C)NC(=O)[C@H](C)NC(=O)[C@H](CCCCN)NC(=O)[C@H](CC(C)C)NC(=O)[C@H](CC(N)=O)NC(=O)[C@@H](NC(=O)[C@H](CCCCN)NC(=O)CNC(=O)[C@H](CC(C)C)NC(=O)[C@H](CC(C)C)NC(=O)[C@H](Cc1ccc(O)cc1)NC(=O)CNC(=O)[C@H](C)NC(=O)c1cn(CCOCCOCCOCCOCCC(=O)N[C@@]2(C)C[C@H](O[C@H]3[C@H](Oc4c5cc6cc4Oc4ccc(cc4Cl)[C@@H](O)[C@@H](NC(=O)[C@@H](CC(C)C)NC)C(=O)N[C@@H](CC(N)=O)C(=O)N[C@H]6C(=O)N[C@H]4C(=O)N[C@H](C(=O)N[C@H](C(=O)O)c6cc(O)cc(O)c6-c6cc4ccc6O)[C@H](O)c4ccc(c(Cl)c4)O5)O[C@H](CO)[C@@H](O)[C@@H]3O)O[C@@H](C)[C@H]2O)nn1)[C@@H](C)CC)C(=O)N[C@@H](CC(C)C)C(N)=O [conjugate II, Van-PEG4-TP10]
MIC (S. aureus MRSA 12673; first block, test a, repetition 1, read-out: MIC1a): 1.6 µM (≈ 6.33 µg/mL) | MIC (S. aureus MRSA 12673; first block, test a, repetition 2, read-out: MIC2a): 3.2 µM (≈ 12.7 µg/mL) | MIC (S. aureus MRSA 12673; first block, test a, repetition 3, read-out: MIC3a): 1.6 µM (≈ 6.33 µg/mL) | MIC (S. aureus MRSA 12673; first block, test b, repetition 1, read-out: MIC1b): 1.6 µM (≈ 6.33 µg/mL) | MIC (S. aureus MRSA 12673; first block, test b, repetition 2, read-out: MIC2b): 1.6 µM (≈ 6.33 µg/mL) | MIC (S. aureus MRSA 12673; first block, test b, repetition 3, read-out: MIC3b): 1.6 µM (≈ 6.33 µg/mL) | MIC (S. aureus MRSA 12673; test a, repetition 1, read-out: MIC1a): 6.33 µM (≈ 25 µg/mL) | MIC (S. aureus MRSA 12673; test a, repetition 2, read-out: MIC2a): 12.66 µM (≈ 50.1 µg/mL) | MIC (S. aureus MRSA 12673; test a, repetition 3, read-out: MIC3a): 6.33 µM (≈ 25 µg/mL) | MIC (S. aureus MRSA 12673; test b, repetition 1, read-out: MIC1b): 6.33 µM (≈ 25 µg/mL) | MIC (S. aureus MRSA 12673; test b, repetition 2, read-out: MIC2b): 6.33 µM (≈ 25 µg/mL) | MIC (S. aureus MRSA 12673; test b, repetition 3, read-out: MIC3b): 6.33 µM (≈ 25 µg/mL) | MIC in (μg/ml) (S. aureus MRSA 12673; [6]): 6.3 ± 2.6 µg/mL (≈ 1.59 µM) | MIC (S. aureus MRSA N315; [7]): 1.6 ± 0.8 µM (≈ 6.33 µg/mL) | MIC (S. aureus MRSA N315; [8]): 1.6 µM (≈ 6.33 µg/mL) | MIC (S. aureus MRSA N315; [9]): 3.2 µM (≈ 12.7 µg/mL) | MIC (S. aureus MRSA N315; [10]): 1.6 µM (≈ 6.33 µg/mL) | MIC (S. aureus MRSA N315; [11]): 1.6 µM (≈ 6.33 µg/mL) | MIC (S. aureus MRSA N315; [12]): 3.2 µM (≈ 12.7 µg/mL) | MIC (S. aureus MRSA N315; [13]): 1.6 µM (≈ 6.33 µg/mL) | MIC (S. aureus MRSA N315; [14]): 6.33 µM (≈ 25 µg/mL) | MIC (S. aureus MRSA N315; [15]): 12.66 µM (≈ 50.1 µg/mL) | MIC (S. aureus MRSA N315; [16]): 6.33 µM (≈ 25 µg/mL) | MIC (S. aureus MRSA N315; [17]): 6.33 µM (≈ 25 µg/mL) | MIC (S. aureus MRSA N315; [18]): 6.33 µM (≈ 25 µg/mL) | MIC (S. aureus MRSA N315; [19]): 6.33 µM (≈ 25 µg/mL) | MIC in (μg/ml) (S. aureus MRSA N315; [6]): 6.3 ± 2.6 µg/mL (≈ 1.59 µM) | MIC [2, 7]: 3.1 ± 0.8 µM (≈ 12.3 µg/mL) | MIC [2, 8]: 3.1 µM (≈ 12.3 µg/mL) | MIC [2, 9]: 3.1 µM (≈ 12.3 µg/mL) | MIC [2, 10]: 1.56 µM (≈ 6.17 µg/mL) | MIC [2, 11]: 1.56 µM (≈ 6.17 µg/mL) | MIC [2, 12]: 3.1 µM (≈ 12.3 µg/mL) | MIC [2, 13]: 1.56 µM (≈ 6.17 µg/mL) | MIC [2, 14]: 12.26 µM (≈ 48.5 µg/mL) | MIC [2, 15]: 12.26 µM (≈ 48.5 µg/mL) | MIC [2, 16]: 6.13 µM (≈ 24.3 µg/mL) | MIC [2, 17]: 6.13 µM (≈ 24.3 µg/mL) | MIC [2, 18]: 12.26 µM (≈ 48.5 µg/mL) | MIC [2, 19]: 6.13 µM (≈ 24.3 µg/mL) | MIC in (μg/ml) [2, 6]: 12.3 ± 3.6 µg/mL (≈ 3.11 µM) | MIC [3, 7]: 25.0 ± 6.5 µM (≈ 98.9 µg/mL) | MIC [3, 8]: 25 µM (≈ 98.9 µg/mL) | MIC [3, 9]: 25 µM (≈ 98.9 µg/mL) | MIC [3, 10]: 12.5 µM (≈ 49.5 µg/mL) | MIC [3, 11]: 12.5 µM (≈ 49.5 µg/mL) | MIC [3, 12]: 25 µM (≈ 98.9 µg/mL) | MIC [3, 13]: 25 µM (≈ 98.9 µg/mL) | MIC [3, 14]: 98.91 µM (≈ 391 µg/mL) | MIC [3, 15]: 98.91 µM (≈ 391 µg/mL) | MIC [3, 17]: 98.91 µM (≈ 391 µg/mL) | MIC [3, 18]: 98.91 µM (≈ 391 µg/mL) | MIC [3, 19]: 98.91 µM (≈ 391 µg/mL) | MIC in (μg/ml) [3, 6]: 98.9 ± 21.8 µg/mL (≈ 25 µM) | MIC [4, 7]: 25.0 ± 5.1 µM (≈ 98.9 µg/mL) | MIC [4, 8]: 25 µM (≈ 98.9 µg/mL) | MIC [4, 9]: 25 µM (≈ 98.9 µg/mL) | MIC [4, 10]: 12.5 µM (≈ 49.5 µg/mL) | MIC [4, 11]: 25 µM (≈ 98.9 µg/mL) | MIC [4, 12]: 25 µM (≈ 98.9 µg/mL) | MIC [4, 13]: 25 µM (≈ 98.9 µg/mL) | MIC [4, 14]: 98.91 µM (≈ 391 µg/mL) | MIC [4, 15]: 98.91 µM (≈ 391 µg/mL) | MIC [4, 16]: 49.46 µM (≈ 196 µg/mL) | MIC [4, 17]: 98.91 µM (≈ 391 µg/mL) | MIC [4, 18]: 98.91 µM (≈ 391 µg/mL) | MIC [4, 19]: 98.91 µM (≈ 391 µg/mL) | MIC in (μg/ml) [4, 6]: 98.9 ± 20.2 µg/mL (≈ 25 µM) | cell lysis (haemolysis) (sheep erythrocytes; 12.5 µM): 5% | cell lysis (haemolysis) (sheep erythrocytes; 100 µM): 77% | hemolysis at MIC concentrations (sheep erythrocytes; 6.25–0.78 μM): lack of hemolysis | MIC (marked in raw data) [5]: 1,56 µM
